Test results from patent US7060822B1, “2-pyrazolin-5-ones” (Abbott GmbH & Co. KG, priority 1999, dated 2006).

Row | melting point [°C] | Compound
1 | 254 to 255 | CC(C)OC1=NNC(=O)C1=Cc1cc2ccccc2n1C [Example 315, 3-Isopropoxy-4-[(1-methylindol-2-yl)methylene]-2-pyrazolin-5-one]
2 | 235 to 237 | Cc1cc(C)c(C=C2C(=O)NN=C2c2ccco2)[nH]1 [Example 127, 4-[(3,5-dimethylpyrrol-2-yl)methylene]-3-(2-furyl)-2-pyrazolin-5-one]
3 | 208 to 210 | CCOC1=NNC(=O)C1=Cc1ccc([N+](=O)[O-])[nH]1 [Example 152, 3-Ethoxy-4-[(5-nitropyrrol-2-yl)methylene]-2-pyrazolin-5-one]
4 | 185 to 187 | CCOC1=NNC(=O)C1=Cc1[nH]c2ccccc2c1CN(C)C [Example 332, 4-[(3-Dimethylaminomethylindol-2-yl)methylene]-3-ethoxy-2-pyrazolin-5-one]
5 | 193 to 194 | O=C1NN=C(CCc2ccc(Cl)cc2)C1=Cc1ccc[nH]1 [Example 34, 3-(4-Chlorophenylethyl)-4-[(pyrrol-2-yl)methylene]-2-pyrazolin-5-one]
6 | 210 to 212 | COC(=O)c1ccc(CCC2=NNC(=O)C2=Cc2cc3ccccc3[nH]2)cc1 [Example 309, 3-(4-Methoxycarbonylphenylethyl]-4-[(indol-2-yl)methylene]-2-pyrazolin-5-one]
7 | 217 to 219 | Cc1[nH]c(C=C2C(=O)NN=C2C2CC2)c(C)c1CN [Example 132, 3-Cyclopropyl-4-[(4-aminomethyl-3,5-dimethylpyrrol-2-yl)methylene]-2-pyrazolin-5-one]
8 | 224 to 225 | O=C1NN=C(c2ccncc2)C1=Cc1cn(CCCCO)c2ccccc12 [Example 267, 4-{[1-(4-Hydroxybutyl)indol-3-yl]methylene}-3-(4-pyridyl)-2-pyrazolin-5-one]
9 | 302 to 305 | Cc1[nH]c(C=C2C(=O)NN=C2c2cnccn2)c(C)c1CNC(=O)C(F)(F)F [Example 139, 4-[(3,5-Dimethyl-4-trifluoroacetamidomethylpyrrol-2-yl)methylene]-3-pyrazinyl-2-pyrazolin-5-one]
10 | 134 to 136 | O=C1NN=C(C2CC2)C1=Cc1cccn1CCCCO [Example 81, 3-Cyclopropyl-4-{[1-(4-hydroxybutyl)pyrrol-2-yl]methylene]-2-pyrazolin-5-one]
11 | 274 to 277 | O=C1NN=C(Cc2ccccc2)C1=Cc1c[nH]c2ncccc12 [Example 333, 4-[(7-Azaindol-3-yl)methylene]-3-benzyl-2-pyrazolin-5-one]
12 | 170 to 172 | Cc1ccc(C=C2C(=O)NN=C2C2CC2)[nH]1 [Example 72, 3-Cyclopropyl-4-[(5-methylpyrrol-2-yl)methylene]-2-pyrazolin-5-one]
13 | > 300 | CC(C)OC1=NNC(=O)C1=Cc1ccc(O)c2ncccc12 [Example 370, 4-[(8-Hydroxyquinolin-5-yl)methylene]-3-isopropoxy-2-pyrazolin-5-one]
14 | 184 to 186 | CCc1c(C)[nH]c(C=C2C(=O)NN=C2c2ccccn2)c1C [Example 125, 4-[(3,5-Dimethyl-4-ethylpyrrol-2-yl)methylene]-3-(2-pyridyl)-2-pyrazolin-5-one]
15 | 271 to 275 | O=C1NN=C(CCc2ccc(O)cc2)C1=Cc1c[nH]c2ccccc12 [Example 235, 3-(4-Hydroxyphenylethyl)-4-[(indol-3-yl)methylene]-2-pyrazolin-5-one]
16 | 226 to 227 | O=C1NN=C(C2CCCCC2)C1=Cc1cn(CCCCO)c2ccccc12 [Example 266, 3-Cyclohexyl-4-{[1-(4-hydroxybutyl)indol-3-yl]methylene}-2-pyrazolin-5-one]

Row | melting point [°C] | Compound
17 | 183 to 185 | CCc1c(C)[nH]c(C=C2C(=O)NN=C2CCc2ccc(N)cc2)c1C [Example 45, 3-(4-Aminophenylethyl)-4-[(3,5-dimethyl-4-ethylpyrrol-2-yl)methylene]-2-pyrazolin-5-one]
18 | 245 to 247 | O=C1NN=C(Nc2ccc(Cl)cc2)C1=Cc1ccc[nH]1 [Example 18, 3-(4-Chlorophenylamino)-4-[(pyrrol-2-yl)methylene]-2-pyrazolin-5-one]
19 | 215 to 216 | O=C1NN=C(C2CC2)C1=Cc1cn(CCCCO)c2ccccc12 [Example 261, 3-Cyclopropyl-4-{[1-(4-hydroxybutyl)indol-3-yl]methylene}-2-pyrazolin-5-one]
20 | 244 | Cc1cc(C(C)C)c(C=C2C(=O)NN=C2c2cnccn2)[nH]1 [Example 197, 4-[(3-Isopropyl-5-methylpyrrol-2-yl)methylene]-3-pyrazinyl-2-pyrazolin-5-one]
21 | 208 to 210 | Cn1cc(C=C2C(=O)NN=C2C2CCOC2)c2ccccc21 (stereo not shown) [Example 291, 4-[(1-Methylindol-3-yl)methylene]-3-(tetrahydrofuran-3-yl)-2-pyrazolin-5-one]
22 | 194 to 196 | CCOC1=NNC(=O)C1=Cc1cn(C)c2ccccc12 [Example 301, 3-Ethoxy-4-[(1-methylindol-3-yl)methylene]-2-pyrazolin-5-one]
23 | 209 to 210 | CC(=O)c1c(C)[nH]c(C=C2C(=O)NN=C2OC(C)C)c1C [Example 87, 4-[(4-Acetyl-3,5-dimethylpyrrol-2-yl)methylene]-3-isopropoxy-2-pyrazolin-5-one]
24 | 292 to 295 | O=C1NN=C(Cc2ccccc2)C1=Cc1c[nH]c2ccccc12 [Example 210, 3-Benzyl-4-[(indol-3-yl)methylene]-2-pyrazolin-5-one]
25 | > 300 | Cn1cc(C=C2C(=O)NN=C2c2cnccn2)c2ccc(C(=O)O)cc21 [Example 304, 4-[(6-Carboxy-1-methylindol-3-yl)methylene]-3-pyrazinyl-2-pyrazolin-5-one]
26 | 266 to 268 | COc1ccc(OCC2=NNC(=O)C2=Cc2c[nH]c3ccccc23)cc1 [Example 212, 4-[(Indol-3-yl)methylene]-3-(4-methoxyphenyloxymethyl)-2-pyrazolin-5-one]
27 | 227 | Cc1[nH]c(C=C2C(=O)NN=C2c2cnccn2)c(C(C)C)c1CN(C)C [Example 199, 4-[(Dimethylaminomethyl-3-isopropyl-5-methylpyrrol-2-yl)methylene]-3-pyrazinyl-2-pyrazolin-5-one]
28 | 192 to 194 | CCOC(=O)c1c[nH]c(C=C2C(=O)NN=C2C2CC2)c1 [Example 130, 3-Cyclopropyl-4-[(4-ethoxycarbonylpyrrol-2-yl)methylene]-2-pyrazolin-5-one]
29 | 179 to 180 | COc1ccc(CC2=NNC(=O)C2=Cc2ccc[nH]2)cc1 [Example 6, 3-(4-Methoxybenzyl)-4-[(pyrrol-2-yl)methylene]-2-pyrazolin-5-one]
30 | 132 to 133 | CC1CC1C1=NNC(=O)C1=Cc1ccc[nH]1 (stereo not shown) [Example 63, 3-(2-Methylcyclopropyl)-4-[(pyrrol-2-yl)methylene]-2-pyrazolin-5-one]
31 | 327 to 329 | Cc1c[nH]c(C=C2C(=O)NN=C2c2nc3ccccc3s2)c1 [Example 69, 3-(Benzothiazol-2-yl)-4-[(4-methylpyrrol-2-yl)methylene]-2-pyrazolin-5-one]
